Laboratory results: US7858794B2, “Tetrahydroquinoline derivatives” (N.V. Organon, priority 2002, dated 2010)

Target: T1, human FSH receptor (Homo sapiens, UniProt P23945)
T1 construct: expressed in transfected cells; host or cells: Chinese Hamster Ovary (CHO) cells
T1 sequence (P23945 18-695): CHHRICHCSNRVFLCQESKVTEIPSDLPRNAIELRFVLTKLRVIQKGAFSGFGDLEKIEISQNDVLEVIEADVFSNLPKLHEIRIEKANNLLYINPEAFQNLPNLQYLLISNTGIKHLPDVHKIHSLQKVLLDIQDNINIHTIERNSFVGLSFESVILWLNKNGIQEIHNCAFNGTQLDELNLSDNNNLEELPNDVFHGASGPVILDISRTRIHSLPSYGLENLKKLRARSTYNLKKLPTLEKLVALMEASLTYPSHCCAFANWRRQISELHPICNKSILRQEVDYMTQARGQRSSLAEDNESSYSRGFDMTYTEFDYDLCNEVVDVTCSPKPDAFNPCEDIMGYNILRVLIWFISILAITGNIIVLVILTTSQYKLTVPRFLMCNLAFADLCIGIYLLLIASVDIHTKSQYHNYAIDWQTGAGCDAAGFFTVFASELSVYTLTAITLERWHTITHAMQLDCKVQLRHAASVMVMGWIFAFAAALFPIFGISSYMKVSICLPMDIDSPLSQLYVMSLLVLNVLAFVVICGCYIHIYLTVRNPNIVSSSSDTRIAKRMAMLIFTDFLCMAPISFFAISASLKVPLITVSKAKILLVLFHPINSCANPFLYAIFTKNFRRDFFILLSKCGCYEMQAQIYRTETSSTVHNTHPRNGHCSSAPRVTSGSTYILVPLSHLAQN
Test: CHO-FSH in vitro bioactivity (CRE-luciferase reporter, agonistic or antagonistic set-up)
Format: cell-based
Details: CHO cells stably transfected with human FSH receptor and CRE-luciferase; either agonistic or antagonistic (rec-hFSH, 10 mU/ml) assay set-up or both / at least one of the assays; read-out: EC50 (IC50)
Experimental: FSH activity of compounds were tested in Chinese Hamster Ovary (CHO) cells stably transfected with the human FSH receptor and cotransfected with a cAMP responsive element (CRE)/promotor directing the expression of a firefly luciferase reporter gene. Binding of ligand to the Gs-coupled FSH receptor will result in an increase of cAMP, which in turn will induce an increased transactivation of the luciferase reporter construct. To test antagonistic properties recombinant FSH in a concentration that induces approximately 80% of the maximal stimulation of cAMP accumulation in the absence of test compound was added (rec-hFSH, 10 mU/ml). The luciferase signal was quantified using a luminescence counter. For test compounds, EC50 values (concentration of test compound causing half-maximal (50%) stimulation or reduction) were calculated For that purpose the software program GraphPad PRISM, version 3.0 (GraphPad software Inc., San Diego) was used.

Row | EC50 [nM] | SMILES
1 | < 100 | CC(=O)N1c2cc(OCC(=O)N(C)C)c(NC(=O)c3ccc(-c4ccccc4)cc3)cc2C(C)(c2ccccc2)CC1(C)C (stereo not shown) [Example 16, Biphenyl-4-carboxylic acid (1-acetyl-7-dimethylcarbamoylmethoxy-2,2,4-trimethyl-4-phenyl-1,2,3,4-tetrahydro-quinolin-6-yl)-amide]
2 | < 100 | CC(=O)N1c2cc(N(C)C)c(NC(=O)C3CCCC3)cc2C(C)(c2ccccc2)CC1(C)C (stereo not shown) [Example 37, Cyclopentanecarboxylic acid (1-acetyl-7-dimethylamino-2,2,4-trimethyl-4-phenyl-1,2,3,4-tetrahydro-quinolin-6yl)-amide]
3 | < 100 | CC(=O)N1c2cc(N(C)C)c(NC(=O)C(C)C)cc2C(C)(c2ccccc2)CC1(C)C (stereo not shown) [Example 38, N-(1-Acetyl-7-dimethylamino-2,2,4-trimethyl-4-phenyl-1,2,3,4-tetrahydro-quinolin-6-yl)-isobutyramide]
4 | < 100 | CCNc1cc2c(cc1NC(=O)c1ccc(-c3ccccc3)cc1)C(C)(c1ccccc1)CC(C)(C)N2C(C)=O (stereo not shown) [Example 41, Biphenyl-4-carboxylic acid (1-acetyl-7-ethylamino-2,2,4-trimethyl-4-phenyl-1,2,3,4-tetrahydro-quinolin-6-yl)amide]
